In test [1] the test system is A549. The test can be described thus: Cytotoxicity against human A549 cells assessed as cell growth inhibition measured after 48 hrs by MTT assay. Format: functional, cell-based. The note with it: A549, 48 h.
Test [2] has as its system HepG2. The test can be described thus: Cytotoxicity against human HepG2 cells assessed as cell growth inhibition measured after 48 hrs by MTT assay. In kind it is functional, cell-based. The note with it: HepG2, 48 h. A general note: Tetrazolium assays rely on reduction of a dye to a coloured formazan, in cell work by metabolically active cells.
The subject of test [3] is MCF7. The test can be described thus: Cytotoxicity against human MCF7 cells assessed as cell growth inhibition measured after 48 hrs by MTT assay. In kind it is functional, cell-based. The note with it: MCF7, 48 h.
The target in test [4] is Acetylcholinesterase (Electrophorus electricus, UniProt O42275). Put plainly: Inhibition of electric eel AChE using acetylthiocholine iodide as substrate preincubated for 20 mins followed by substrate addition measured for 30 mins by Ellman's method. (In general: In Ellman's method for cholinesterases, released thiocholine reacts with DTNB.)

pIC50: −log10 of the molar value. Structures can show the parent of a compound that is named as a salt.

As a reminder, the pIC50 is −log10 of the IC50, conventionally taken in molar units.

Chain of Acetylcholinesterase (O42275 whole entry): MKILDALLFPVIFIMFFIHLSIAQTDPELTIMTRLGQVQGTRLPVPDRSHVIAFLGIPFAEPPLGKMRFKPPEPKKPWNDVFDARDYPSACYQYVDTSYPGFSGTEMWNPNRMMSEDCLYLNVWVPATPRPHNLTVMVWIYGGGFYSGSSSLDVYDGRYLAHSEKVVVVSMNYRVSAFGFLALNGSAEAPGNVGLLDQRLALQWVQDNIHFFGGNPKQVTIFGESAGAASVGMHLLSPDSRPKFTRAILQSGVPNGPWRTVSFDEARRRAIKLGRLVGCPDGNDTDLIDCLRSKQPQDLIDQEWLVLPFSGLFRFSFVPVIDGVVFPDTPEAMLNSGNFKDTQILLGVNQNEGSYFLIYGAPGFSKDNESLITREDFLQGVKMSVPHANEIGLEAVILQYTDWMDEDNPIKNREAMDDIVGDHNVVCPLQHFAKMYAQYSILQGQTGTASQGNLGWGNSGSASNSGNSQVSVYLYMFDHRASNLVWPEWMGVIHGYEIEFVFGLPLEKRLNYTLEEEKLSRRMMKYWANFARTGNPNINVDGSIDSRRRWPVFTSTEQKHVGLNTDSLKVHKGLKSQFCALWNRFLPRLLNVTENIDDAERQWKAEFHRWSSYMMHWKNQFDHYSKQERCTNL

In the case of `C=C[C@H]1[C@H](O[C@@H]2O[C@H](CO)[C@@H](O)[C@H](O)[C@H]2O[C@@H]2O[C@H](CO)[C@@H](O)[C@H](O)[C@H]2O)OC=C2C(=O)N3CCc4c([nH]c5cc(O[C@@H]6O[C@H](CO)[C@@H](O)[C@H](O)[C@H]6O)ccc45)[C@H]3C[C@H]21`, the pIC50 in test [1], in test [2] and in test [3] was below 4.10 throughout.
For the compound `C=C[C@H]1[C@H](O[C@@H]2O[C@H](CO)[C@@H](O)[C@H](O)[C@H]2O)OC=C2C(=O)N3CC[C@@]4(C(=O)Nc5cc(O)ccc54)[C@H]3C[C@H]21`, the pIC50 in test [1], in test [2] and in test [3] was below 4.10 each time.
Turning to `C=C[C@H]1[C@H](O[C@@H]2O[C@H](CO)[C@@H](O)[C@H](O)[C@H]2O[C@@H]2O[C@H](CO)[C@@H](O)[C@H](O)[C@H]2O)OC=C2C(=O)N3CC[C@]4(C(=O)Nc5cc(O)ccc54)[C@H]3C[C@H]21`, the pIC50 in test [1], in test [2] and in test [3] was below 4.10 each time.
For the compound `C=C[C@H]1[C@H](O[C@@H]2O[C@H](CO)[C@@H](O)[C@H](O)[C@H]2O)OC=C2C(=O)N3CCc4c([nH]c5ccccc45)[C@@H]3C[C@H]21`, the pIC50 in test [1], in test [2] and in test [3] was below 4.10 throughout.
Consider `COC(=O)C1=CO[C@@H](O[C@@H]2O[C@H](CO)[C@@H](O)[C@H](O)[C@H]2O)[C@H]2[C@@H]1C[C@@H]1N(CC[C@]13C(=O)Nc1ccccc13)C[C@@H]2O`, for which the negative-log IC50 (pIC50) in test [1], in test [2] and in test [3] was below 4.10 in each case.
For `C=CC1C(C[C@@H]2NCCc3c2[nH]c2ccccc32)C(C(=O)O)=CO[C@H]1O[C@@H]1O[C@H](CO)[C@@H](O)[C@H](O)[C@H]1O` (some centres undefined) [STRICTOSIDINIC ACID], the pIC50 in test [1], in test [2] and in test [3] was below 4.10 throughout.
In the case of `C=C[C@H]1[C@H](O[C@@H]2O[C@H](CO)[C@@H](O)[C@H](O)[C@H]2O[C@@H]2O[C@H](CO)[C@@H](O)[C@H](O)[C@H]2O)OC=C2C(=O)N3CCc4c([nH]c5ccccc45)[C@H]3C[C@H]21`, the negative logarithm of the IC50 (pIC50) in test [1], in test [2] and in test [3] was below 4.10 each time.
Take `C=C[C@H]1CN2CC[C@@]3(C(=O)Nc4ccccc43)[C@@H]2C[C@@H]1/C(=C/OC)C(=O)O[C@@H]1O[C@H](CO)[C@@H](O)[C@H](O)[C@H]1O`: the pIC50 in test [1], in test [2] and in test [3] was below 4.10 each time.
Take `C=C[C@H]1CN2CC[C@]3(C(=O)Nc4ccccc43)[C@@H]2C[C@@H]1/C(=C/OC)C(=O)O[C@@H]1O[C@H](CO)[C@@H](O)[C@H](O)[C@H]1O`: the pIC50 in test [1], in test [2] and in test [3] was below 4.10 throughout.
For the compound `C=C[C@H]1[C@H](O[C@@H]2O[C@H](CO)[C@@H](O)[C@H](O)[C@H]2O)OC=C2C(=O)N3[C@H](C(=O)O)Cc4c([nH]c5ccccc45)[C@@H]3C[C@H]21`, the pIC50 in test [1], in test [2] and in test [3] was below 4.10 each time.
Take `COC(=O)C1=CO[C@@H](O[C@@H]2O[C@H](CO)[C@@H](O)[C@H](O)[C@H]2O)[C@@H]2[C@@H]3CN4CCc5c([nH]c6ccccc56)[C@]4(C[C@H]12)O3`: the pIC50 in test [1], in test [2] and in test [3] was below 4.10 each time.
Consider `C=C[C@H]1[C@H](O[C@@H]2O[C@H](CO)[C@@H](O)[C@H](O)[C@H]2O[C@@H]2O[C@H](CO)[C@@H](O)[C@H](O)[C@H]2O)OC=C2C(=O)N3Cc4c([nH]c5cc(O)ccc5c4=O)[C@H]3C[C@H]21`, for which the pIC50 in test [1], in test [2] and in test [3] was below 4.10 throughout.
`C=C[C@H]1[C@H](O[C@@H]2O[C@H](CO)[C@@H](O)[C@H](O)[C@H]2O)OC=C2C(=O)N3CCc4c([nH]c5cc(O)ccc45)[C@H]3C[C@H]21`: the negative logarithm of the IC50 (pIC50) in test [1], in test [2] and in test [3] was below 4.10 in each case.
On to `C=C[C@H]1[C@H](O[C@@H]2O[C@H](CO)[C@@H](O)[C@H](O)[C@H]2O)OC=C2C(=O)N3CCc4c([nH]c5ccccc45)[C@H]3C[C@H]21`, for which the negative logarithm of the IC50 (pIC50) in test [1], in test [2] and in test [3] was below 4.10 throughout.
For the compound `COC(=O)C1=CO[C@@H](O[C@@H]2O[C@H](CO)[C@@H](O)[C@H](O)[C@H]2O)[C@H]2[C@@H]1C[C@@H]1c3[nH]c4ccccc4c3CCN1[C@H]2CO`, the pIC50 in test [1], in test [2] and in test [3] was below 4.10 in each case.
For `C=C[C@H]1COC(=O)C2=CN3CCc4c([nH]c5cccc(O[C@@H]6O[C@H](CO)[C@@H](O)[C@H](O)[C@H]6O)c45)[C@@H]3C[C@H]21`, the pIC50 was 4.98 in test [4], below 4.10 in test [1], below 4.10 in test [2] and below 4.10 in test [3].
With `C=C[C@H]1[C@H](O[C@@H]2O[C@H](CO)[C@@H](O)[C@H](O)[C@H]2O)OC=C(C(=O)OC)[C@H]1Cc1nc(C(=O)OC)cc2c1[nH]c1ccccc12`, the negative logarithm of the IC50 (pIC50) in test [1], in test [2] and in test [3] was below 4.10 in each case.
As to `O=C1C2=CO[C@@H](O[C@@H]3O[C@H](CO)[C@@H](O)[C@H](O)[C@H]3O[C@@H]3O[C@H](CO)[C@@H](O)[C@H](O)[C@H]3O)[C@H]([C@H](O)CO)[C@@H]2C[C@@H]2c3[nH]c4cc(O[C@@H]5O[C@H](CO)[C@@H](O)[C@H](O)[C@H]5O)ccc4c3CCN12`, the pIC50 in test [1], in test [2] and in test [3] was below 4.10 in each case.
Turning to `C=C[C@H]1[C@H](O[C@@H]2O[C@H](CO)[C@@H](O)[C@H](O)[C@H]2O)OC=C2C(=O)N3Cc4c([nH]c5cc(O)ccc5c4=O)[C@H]3C[C@H]21`, the negative logarithm of the IC50 (pIC50) in test [1], in test [2] and in test [3] was below 4.10 in each case.
As to `C=C[C@H]1[C@H](O[C@@H]2O[C@H](CO)[C@@H](O)[C@H](O)[C@H]2O)OC=C(C(=O)OC)[C@H]1C[C@@H]1N[C@H](C(=O)OC)Cc2c1[nH]c1ccccc21`, the pIC50 in test [1], in test [2] and in test [3] was below 4.10 throughout.
For `COC(=O)C1=CO[C@@H](O[C@@H]2O[C@H](CO)[C@@H](O)[C@H](O)[C@H]2O)[C@@H]2[C@H](O)CN3CCc4c([nH]c5ccccc45)[C@@H]3C[C@H]12`, the pIC50 in test [1], in test [2] and in test [3] was below 4.10 in each case.
As for `C=C[C@H]1[C@H](O[C@@H]2O[C@H](CO)[C@@H](O)[C@H](O)[C@H]2O)OC=C2C(=O)N3CCc4c([nH]c5ccc(O)cc45)[C@@H]3C[C@H]21`, the negative-log IC50 (pIC50) in test [1], in test [2] and in test [3] was below 4.10 in each case.
As for `C=C[C@H]1[C@H](O[C@@H]2O[C@H](CO)[C@@H](O)[C@H](O)[C@H]2O)OC=C(C(=O)OC)[C@H]1C[C@@H]1N[C@H](C(=O)O)Cc2c1[nH]c1ccccc21`, the pIC50 in test [1], in test [2] and in test [3] was below 4.10 in each case.
For `C=C[C@H]1[C@H](O[C@@H]2O[C@H](CO)[C@@H](O)[C@H](O)[C@H]2O[C@@H]2O[C@H](CO)[C@@H](O)[C@H](O)[C@H]2O)OC=C2C(=O)N3CC[C@@]4(C(=O)Nc5cc(O)ccc54)[C@H]3C[C@H]21`, the negative logarithm of the IC50 (pIC50) in test [1], in test [2] and in test [3] was below 4.10 in each case.
As for `COc1cccc2c1C(=O)c1c(O)c3c(c(O)c1C2=O)C[C@@](O)(C(=O)CO)C[C@@H]3O[C@H]1C[C@H](N)[C@H](O)[C@H](C)O1` [DOXORUBICIN HYDROCHLORIDE], the negative logarithm of the IC50 (pIC50) in test [1], in test [2] and in test [3] was above 6.00 each time.
Regarding `COC(=O)C1=CO[C@@H](O[C@@H]2O[C@H](CO)[C@@H](O)[C@H](O)[C@H]2O)[C@H]2[C@@H]1C[C@H]1c3[nH]c4ccccc4c3CCN1[C@H]2CO`, the pIC50 in test [1], in test [2] and in test [3] was below 4.10 in each case.

Values taken from ChEMBL document CHEMBL4334530, “Glucoconjugated Monoterpene Indole Alkaloids from Uncaria rhynchophylla” (J Nat Prod, 2019).
